Experimental data reported in patent publication US11547704B2, “Chemical compounds” (GlaxoSmithKline Intellectual Property Development Limited, priority 2016, dated 2023).

Tested on: ATF4 translation
Assay: ATF4 cell based assay (ATF4 reporter assay, NanoLuc luciferase fused to 5'-UTR of ATF4)
Conditions: SH-SY5Y-ATF4-NanoLuc cells challenged with Thapsigargin for 14-18 hours; average of a set of two or more experimental runs; read-out: average ATF4 pathway inhibitory activity (IC50)
Description: The ATF4 reporter assay measures the effect of Thapsigargin induced cellular stress on ATF4 expression. For this reporter assay, a stable cell line was created by transfecting SH-SY5Y cells with a plasmid containing the NanoLuc® luciferase gene fused to the 5′-UTR of ATF4, under the control of the CMV promoter. The ATF4 5′-UTR contains two open reading frames which mediate the cellular stress-dependent translation of the reporter gene. Clones stably expressing the reporter construct were isolated and selected based on the luminescence response to thapsigargin and inhibition of this signal by test compounds. Briefly, SH-SY5Y-ATF4-NanoLuc cells were challenged with Thapsigargin for 14-18 hours to determine the stress effect with or without test compounds. Cells were propagated in growth media consisting of 90% DMEM F12 (InVitrogen #11320-033), 10% Fetal Bovine Serum (Gibco #10438-026), 5 mM Glutamax (Gibco #35050-061), 5 mM Hopes, (Gibco #15630-080), and 0.5 mg/ml Geneticin (Gibco #10131-027). Cells were prepared for the assay by removing all media from cells, washing the plated cells with phosphate buffered saline, and detached by adding a solution comprised of 10% Tryple express solution (InVitrogen 12604-021) and 90% enzyme-free cell dissociation buffer HANKS base (Gibco 13150-016). The trypsin was deactivated by adding assay media comprised of 90% phenol-red free DMEM F12 (InVitrogen, 11039), 10% Fetal Bovine Serum (Gibco #10438-026), (5 mM Glutamax (Gibco #35050-061), mM Hopes, (Gibco #15630-080), and 0.5 mg/ml Geneticin (Gibco #10131-027). Suspended cells were spun down at 300 g for 5 min, the supernatant was removed and the cell pellet was suspended in warm media (30-37° C.) comprised as above at (1e6 cell/ml). Assay plates were prepared by adding 250 nL of compound stock solution in 100% DMSO to each well, followed by dispensing 20 microliters/well cell suspension to deliver 15-20 k cell/well. Cells were incubated for 1 hour at 37° C. Then, 5 μL of 1.5 μM or 1 μM of Thapsigargin (final concentration: 200-300 nM) was added to each well of cells. Assay plates containing cells were incubated for 14-18 hours at 37° C. The measurement of luciferase produced by the ATF4 constructs was measured as follows. Aliquots of the Nano-Glo reagent (Nano-Glo® Luciferase Assay Substrate, Promega, N113, Nano-Glo® Luciferase Assay Buffer, Promega, N112 (parts of Nano-Glo® Luciferase Assay System, N1150) were brought to room temperature, the substrate and buffer were mixed according to manufacturer's instructions. The cell plates were equilibrated to room temperature. 25microliters/well of the mixed Nano-Glo reagent were dispensed into assay wells and pulse spun to settle contents and the plate was sealed with film. The plates were incubated at room temperature for 1 hour before detecting luminescence on an Envision plate reader.

| Structure (SMILES) | IC50 [nM] |
| --- | --- |
| O=C(COc1ccc(Cl)cc1)NC1CCN(CCCOc2ccc(Cl)cc2)CC1 [Example 2, 2-(4-chlorophenoxy)-N-(1-(3-(4-chlorophenoxy)propyl)piperidin-4-yl)acetamide] | < 4000 |
| O=C(COc1ccc(Cl)cc1)NC1CCCN(C(=O)COc2ccc(Cl)cc2)C1 (centres unmarked) [Example 27, 2-(4-chlorophenoxy)-N-(1-(2-(4-chlorophenoxy)acetyl)piperidin-3-yl)acetamide] | > 1000 |
| O=C(COc1ccc(Cl)cc1)NCCC1CCCN(C(=O)COc2ccc(Cl)cc2)C1 (centres unmarked) [Example 28, 2-(4-chlorophenoxy)-N-(2-(1-(2-(4-chlorophenoxy)acetyl)piperidin-3-yl)ethyl)acetamide] | < 1000 |
| O=C(COc1ccc(Cl)nc1)NCC1CCCN(C(=O)COc2ccc(Cl)cc2)C1 (centres unmarked) [Example 29, N-((1-(2-(4-chlorophenoxy)acetyl)piperidin-3-yl)methyl)-2-((6-chloropyridin-3-yl)oxy)acetamide] | > 1000 |
| O=C(NCCOc1ccc(Cl)cc1)C1CCN(CCOc2ccc(Cl)cc2)CC1 [Example 39, N,1-bis(2-(4-chlorophenoxy)ethyl)piperidine-4-carboxamide] | > 1000 |
| O=C(NCCOc1ccc(Cl)cc1)C1CCN(CCCOc2ccc(Cl)cc2)CC1 [Example 40, N-(2-(4-chlorophenoxy)ethyl)-1-(3-(4-chlorophenoxy)propyl)piperidine-4-carboxamide] | > 1000 |
| O=C(COc1ccc(Cl)cc1)NCC1CCN(CCCOc2ccc(Cl)cc2)CC1 [Example 49, 2-(4-chlorophenoxy)-N-((1-(3-(4-chlorophenoxy)propyl)piperidin-4-yl)methyl)acetamide] | > 1000 |
| O=C(COc1ccc(C2CC2)cc1)NC1CCN(CCCOc2ccc(Cl)cc2)CC1 [Example 56, N-(1-(3-(4-chlorophenoxy)propyl)piperidin-4-yl)-2-(4-cyclopropylphenoxy)acetamide] | > 1000 |

Further lines, results first:

| IC50 [nM] | Structure (SMILES) |
| --- | --- |
| 32 | O=C(COc1ccc(Cl)cc1)NC1CCN(CC(O)COc2ccc(Cl)cc2)CC1 (centres unmarked) [Example 11, 2-(4-chlorophenoxy)-N-(1-(3-(4-chlorophenoxy)-2-hydroxypropyl)piperidin-4-yl)acetamide] |
| 76.8 | O=C(COc1ccc(Cl)cc1)NC1CCN(CCCOc2ccc(Cl)nc2)CC1 [Example 17, 2-(4-chlorophenoxy)-N-(1-(3-((6-chloropyridin-3-yl)oxy)propyl)piperidin-4-yl)acetamide] |
| 201 | O=C(NCCc1ccc(Cl)cc1)C1CCN(C(=O)COc2ccc(Cl)cc2)CC1 [Example 24, N-(4-chlorophenethyl)-1-(2-(4-chlorophenoxy)acetyl)piperidine-4-carboxamide] |
| 110 | O=C(COc1ccc(Cl)cc1)NC1CCN(C(=O)COc2ccc(Cl)cc2)CC1F (centres unmarked) [Example 30, 2-(4-chlorophenoxy)-N-(1-(2-(4-chlorophenoxy)acetyl)-3-fluoropiperidin-4-yl)acetamide] |
| 98.7 | O=C(COc1ccc(Cl)cc1)NC1CCN(C(=O)CCCc2ccc(Cl)cc2)CC1 [Example 37, 2-(4-chlorophenoxy)-N-(1-(4-(4-chlorophenyl)butanoyl)piperidin-4-yl)acetamide] |
| 58.4 | O=C(COc1ccc(Cl)nc1)NC1CCN(CCCOc2ccc(Cl)cc2)CC1 [Example 43, N-(1-(3-(4-chlorophenoxy)propyl)piperidin-4-yl)-2-((6-chloropyridin-3-yl)oxy)acetamide] |
| 93.9 | O=C(COc1ccc(Cl)cc1)NC1CCN(CCOc2ccc(Cl)cc2)CC1F (centres unmarked) [Example 50, 2-(4-chlorophenoxy)-N-(1-(2-(4-chlorophenoxy)ethyl)-3-fluoropiperidin-4-yl)acetamide] |
| 61.2 | CN(C(=O)COc1ccc(Cl)cc1)C1CCN(CCCOc2ccc(Cl)cc2)CC1 [Example 57, 2-(4-chlorophenoxy)-N-(1-(3-(4-chlorophenoxy)propyl)piperidin-4-yl)-N-methylacetamide] |
| 172 | O=C(COc1ccc(Cl)cc1)NC1CCN(CCCOc2ccc(Cl)cc2)C(C(=O)O)C1 (centres unmarked) [Example 59, 4-(2-(4-chlorophenoxy)acetamido)-1-(3-(4-chlorophenoxy)propyl)piperidine-2-carboxylic acid] |
